# Experimental data from patent publication US20100267561A1, “HERBICIDAL PYRIDAZINONE DERIVATIVES” (priority 2007, published 2010).
# Experiments:
# Type in all cases: in vivo
# corn (Zea mays) = assay: Test B pre-/postemergence plant response
# Procedure, shortened: (§1)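 Preemergence and postemergence (plants 2-18 cm, 1- to 4-leaf stage) applications used test chemicals in a non-phytotoxic solvent with surfactant. Plants were held in a greenhouse 13 to 15 days, then rated visually against controls on a 0-100 scale (0 no effect, 100 complete control).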
# [1] = tested on: downy bromegrass (Bromus tectorum); assay: Test B pre-/postemergence plant response
# Procedure, shortened: as §1
# [2] = tested on: eastern black (E.B.) nightshade (Solanum ptycanthum); assay: Test B pre-/postemergence plant response; conditions: Preemergence
# Procedure, shortened: as §1
# [3] = tested on: giant foxtail (Setaria faberii); assay: Test B pre-/postemergence plant response
# Procedure, shortened: as §1
# [4] = tested on: green foxtail (Setaria viridis); assay: Test B pre-/postemergence plant response
# Procedure, shortened: as §1
# [5] = tested on: large crabgrass (Digitaria sanguinalis); assay: Test B pre-/postemergence plant response
# Procedure, shortened: as §1
# [6] = tested on: pigweed (Amaranthus retroflexus); assay: Test B pre-/postemergence plant response
# Procedure, shortened: as §1
# wild oat (Avena fatua) = assay: Test B pre-/postemergence plant response
# Procedure, shortened: as §1
# [7] = tested on: woolly cupgrass (Eriochloa villosa); assay: Test B pre-/postemergence plant response
# Procedure, shortened: as §1
# [8] = tested on: barnyardgrass (Echinochloa crus-galli); assay: Test B flooded paddy test plant response
# Procedure, shortened: (§2)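 2-leaf plants; pots flooded 3 cm above soil; compound added to paddy water; depth maintained. Greenhouse 13–15 d. Visual rating vs controls, 0 (no effect) to 100 (complete control); dash = no result.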
# [9] = tested on: ducksalad (Heteranthera limosa); assay: Test B flooded paddy test plant response
# Procedure, shortened: as §2
# rice (Oryza sativa) = assay: Test B flooded paddy test plant response
# Procedure, shortened: as §2
# [10] = tested on: umbrella sedge (Cyperus difformis); assay: Test B flooded paddy test plant response
# Procedure, shortened: as §2
# [11] = Postemergence, 31 g ai/ha, scale 0 to 100, 0 no effect, 100 complete control
# [12] = Postemergence, 62 g ai/ha, scale 0 to 100
# [13] = Postemergence, 125 g ai/ha, scale 0 to 100
# [14] = Postemergence, 250 g ai/ha, scale 0 to 100
# [15] = Preemergence, 31 g ai/ha, 0 to 100 scale, 0 no effect, 100 complete control
# [16] = Preemergence, 62 g ai/ha, scale 0 to 100
# [17] = Preemergence, 125 g ai/ha, scale 0 to 100
# [18] = Preemergence, 250 g ai/ha, scale 0 to 100
# [19] = Preemergence, 250 g ai/ha, scale 0 to 100 (0 no effect, 100 complete control)
# [20] = Flood (flooded paddy test), 62 g ai/ha, scale 0 to 100, 0 no effect, 100 complete control
# [21] = Flood (flooded paddy test), 125 g ai/ha, scale 0 to 100, 0 no effect, 100 complete control
# [22] = Flood (flooded paddy test), 250 g ai/ha, scale 0 to 100, 0 no effect, 100 complete control
# [23] = Flood, 31 g ai/ha, scale 0 to 100
molecule,measurement,setting,value
Cc1cc(-c2ccc(Br)cc2)nn1-c1c(O)cnn(C)c1=O [Compound 4],"Plant response rating, Corn",corn (Zea mays); [11],90
same,"Plant response rating, Corn",corn (Zea mays); [12],95
same,"Plant response rating, Corn",corn (Zea mays); [13],100
same,"Plant response rating, Corn",corn (Zea mays); [14],100
same,"Plant response rating, Corn",corn (Zea mays); [15],85
same,"Plant response rating, Corn",corn (Zea mays); [16],95
same,"Plant response rating, Corn",corn (Zea mays); [17],98
same,"Plant response rating, Corn",corn (Zea mays); [18],100
same,"Plant response rating, Bromegrass, Downy",[1]; [11],0
same,"Plant response rating, Bromegrass, Downy",[1]; [12],5
same,"Plant response rating, Bromegrass, Downy",[1]; [13],20
same,"Plant response rating, Bromegrass, Downy",[1]; [14],40
same,"Plant response rating, Bromegrass, Downy",[1]; [15],70
same,"Plant response rating, Bromegrass, Downy",[1]; [16],70
same,"Plant response rating, Bromegrass, Downy",[1]; [17],98
same,"Plant response rating, Bromegrass, Downy",[1]; [19],100
same,"Plant response rating, Nightshade, E. B.","[2]; 250 g ai/ha, scale 0 to 100",80
same,"Plant response rating, Foxtail, Giant",[3]; [11],100
same,"Plant response rating, Foxtail, Giant",[3]; [12],100
same,"Plant response rating, Foxtail, Giant",[3]; [13],100
same,"Plant response rating, Foxtail, Giant",[3]; [14],100
same,"Plant response rating, Foxtail, Giant",[3]; [15],100
same,"Plant response rating, Foxtail, Giant",[3]; [16],100
same,"Plant response rating, Foxtail, Giant",[3]; [17],100
same,"Plant response rating, Foxtail, Giant",[3]; [18],100
same,"Plant response rating, Foxtail, Green",[4]; [11],95
same,"Plant response rating, Foxtail, Green",[4]; [12],100
same,"Plant response rating, Foxtail, Green",[4]; [13],100
same,"Plant response rating, Foxtail, Green",[4]; [14],100
same,"Plant response rating, Foxtail, Green",[4]; [15],100
same,"Plant response rating, Foxtail, Green",[4]; [16],100
same,"Plant response rating, Foxtail, Green",[4]; [17],100
same,"Plant response rating, Foxtail, Green",[4]; [18],100
same,"Plant response rating, Crabgrass, Large",[5]; [11],100
same,"Plant response rating, Crabgrass, Large",[5]; [12],100
same,"Plant response rating, Crabgrass, Large",[5]; [13],100
same,"Plant response rating, Crabgrass, Large",[5]; [14],100
same,"Plant response rating, Crabgrass, Large",[5]; [15],100
same,"Plant response rating, Crabgrass, Large",[5]; [16],100
same,"Plant response rating, Crabgrass, Large",[5]; [17],100
same,"Plant response rating, Crabgrass, Large",[5]; [18],100
same,"Plant response rating, Pigweed",[6]; [11],0
same,"Plant response rating, Pigweed",[6]; [12],0
same,"Plant response rating, Pigweed",[6]; [13],35
same,"Plant response rating, Pigweed",[6]; [14],50
same,"Plant response rating, Pigweed",[6]; [18],0
same,"Plant response rating, Oat, Wild",wild oat (Avena fatua); [11],98
same,"Plant response rating, Oat, Wild",wild oat (Avena fatua); [12],100
same,"Plant response rating, Oat, Wild",wild oat (Avena fatua); [13],100
same,"Plant response rating, Oat, Wild",wild oat (Avena fatua); [14],100
same,"Plant response rating, Oat, Wild",wild oat (Avena fatua); [15],65
same,"Plant response rating, Oat, Wild",wild oat (Avena fatua); [16],70
same,"Plant response rating, Oat, Wild",wild oat (Avena fatua); [17],85
same,"Plant response rating, Oat, Wild",wild oat (Avena fatua); [18],95
same,"Plant response rating, Cupgrass, Woolly",[7]; [11],100
same,"Plant response rating, Cupgrass, Woolly",[7]; [12],100
same,"Plant response rating, Cupgrass, Woolly",[7]; [13],100
same,"Plant response rating, Cupgrass, Woolly",[7]; [14],100
same,"Plant response rating, Cupgrass, Woolly",[7]; [15],85
same,"Plant response rating, Cupgrass, Woolly",[7]; [16],85
same,"Plant response rating, Cupgrass, Woolly",[7]; [17],100
same,"Plant response rating, Cupgrass, Woolly",[7]; [18],100
same,"Plant response rating, Barnyardgrass",[8]; [20],60
same,"Plant response rating, Barnyardgrass",[8]; [21],70
same,"Plant response rating, Barnyardgrass",[8]; [22],75
same,"Plant response rating, Barnyardgrass",[8]; [23],0
same,"Plant response rating, Ducksalad",[9]; [20],75
same,"Plant response rating, Ducksalad",[9]; [21],85
same,"Plant response rating, Ducksalad",[9]; [22],85
same,"Plant response rating, Ducksalad",[9]; [23],0
same,"Plant response rating, Rice",rice (Oryza sativa); [20],40
same,"Plant response rating, Rice",rice (Oryza sativa); [21],70
same,"Plant response rating, Rice",rice (Oryza sativa); [22],80
same,"Plant response rating, Rice",rice (Oryza sativa); [23],15
same,"Plant response rating, Sedge, Umbrella",[10]; [20],60
same,"Plant response rating, Sedge, Umbrella",[10]; [21],90
same,"Plant response rating, Sedge, Umbrella",[10]; [22],100
same,"Plant response rating, Sedge, Umbrella",[10]; [23],40
4-[3-(4-chlorophenyl)-5-methyl-1H-pyrazol-3-yl]-5-hydroxy-2-methyl-3(2H)-pyridazinone [Compound 3],"Plant response rating, Corn",corn (Zea mays); [11],100
same,"Plant response rating, Corn",corn (Zea mays); [12],100
same,"Plant response rating, Corn",corn (Zea mays); [13],100
same,"Plant response rating, Corn",corn (Zea mays); [14],100
same,"Plant response rating, Corn",corn (Zea mays); [15],95
same,"Plant response rating, Corn",corn (Zea mays); [16],95
same,"Plant response rating, Corn",corn (Zea mays); [17],95
same,"Plant response rating, Corn",corn (Zea mays); [18],98
same,"Plant response rating, Bromegrass, Downy",[1]; [11],5
same,"Plant response rating, Bromegrass, Downy",[1]; [12],5
same,"Plant response rating, Bromegrass, Downy",[1]; [13],5
same,"Plant response rating, Bromegrass, Downy",[1]; [14],5
same,"Plant response rating, Bromegrass, Downy",[1]; [15],50
same,"Plant response rating, Bromegrass, Downy",[1]; [16],60
same,"Plant response rating, Bromegrass, Downy",[1]; [17],95
same,"Plant response rating, Bromegrass, Downy",[1]; [19],98
same,"Plant response rating, Nightshade, E. B.","[2]; 31 g ai/ha, 0 to 100 scale, 0 no effect, 100 complete control",90
same,"Plant response rating, Nightshade, E. B.","[2]; 62 g ai/ha, scale 0 to 100",100
same,"Plant response rating, Nightshade, E. B.","[2]; 125 g ai/ha, scale 0 to 100",100
same,"Plant response rating, Nightshade, E. B.","[2]; 250 g ai/ha, scale 0 to 100",100
same,"Plant response rating, Foxtail, Giant",[3]; [11],100
same,"Plant response rating, Foxtail, Giant",[3]; [12],100
same,"Plant response rating, Foxtail, Giant",[3]; [13],100
same,"Plant response rating, Foxtail, Giant",[3]; [14],100
same,"Plant response rating, Foxtail, Giant",[3]; [15],98
same,"Plant response rating, Foxtail, Giant",[3]; [16],98
same,"Plant response rating, Foxtail, Giant",[3]; [17],100
same,"Plant response rating, Foxtail, Giant",[3]; [18],100
same,"Plant response rating, Foxtail, Green",[4]; [11],90
same,"Plant response rating, Foxtail, Green",[4]; [12],100
same,"Plant response rating, Foxtail, Green",[4]; [13],100
same,"Plant response rating, Foxtail, Green",[4]; [14],100
same,"Plant response rating, Foxtail, Green",[4]; [15],100
same,"Plant response rating, Foxtail, Green",[4]; [16],100
same,"Plant response rating, Foxtail, Green",[4]; [17],100
same,"Plant response rating, Foxtail, Green",[4]; [18],100
same,"Plant response rating, Crabgrass, Large",[5]; [11],100
same,"Plant response rating, Crabgrass, Large",[5]; [12],100
same,"Plant response rating, Crabgrass, Large",[5]; [13],100
same,"Plant response rating, Crabgrass, Large",[5]; [14],100
same,"Plant response rating, Crabgrass, Large",[5]; [15],90
same,"Plant response rating, Crabgrass, Large",[5]; [16],90
same,"Plant response rating, Crabgrass, Large",[5]; [17],100
same,"Plant response rating, Crabgrass, Large",[5]; [18],100
same,"Plant response rating, Pigweed",[6]; [11],0
same,"Plant response rating, Pigweed",[6]; [12],0
same,"Plant response rating, Pigweed",[6]; [13],10
same,"Plant response rating, Pigweed",[6]; [14],25
same,"Plant response rating, Pigweed",[6]; [15],0
same,"Plant response rating, Pigweed",[6]; [16],90
same,"Plant response rating, Pigweed",[6]; [17],90
same,"Plant response rating, Pigweed",[6]; [18],90
same,"Plant response rating, Oat, Wild",wild oat (Avena fatua); [11],90
same,"Plant response rating, Oat, Wild",wild oat (Avena fatua); [12],95
same,"Plant response rating, Oat, Wild",wild oat (Avena fatua); [13],100
same,"Plant response rating, Oat, Wild",wild oat (Avena fatua); [14],100
same,"Plant response rating, Oat, Wild",wild oat (Avena fatua); [15],60
same,"Plant response rating, Oat, Wild",wild oat (Avena fatua); [16],70
same,"Plant response rating, Oat, Wild",wild oat (Avena fatua); [17],80
same,"Plant response rating, Oat, Wild",wild oat (Avena fatua); [18],95
same,"Plant response rating, Cupgrass, Woolly",[7]; [11],100
same,"Plant response rating, Cupgrass, Woolly",[7]; [12],100
same,"Plant response rating, Cupgrass, Woolly",[7]; [13],100
same,"Plant response rating, Cupgrass, Woolly",[7]; [14],100
same,"Plant response rating, Cupgrass, Woolly",[7]; [15],50
same,"Plant response rating, Cupgrass, Woolly",[7]; [16],50
same,"Plant response rating, Cupgrass, Woolly",[7]; [17],90
same,"Plant response rating, Cupgrass, Woolly",[7]; [18],100
same,"Plant response rating, Barnyardgrass",[8]; [20],60
same,"Plant response rating, Barnyardgrass",[8]; [21],70
same,"Plant response rating, Barnyardgrass",[8]; [22],80
same,"Plant response rating, Barnyardgrass",[8]; [23],0
same,"Plant response rating, Ducksalad",[9]; [20],0
same,"Plant response rating, Ducksalad",[9]; [21],0
same,"Plant response rating, Ducksalad",[9]; [22],40
same,"Plant response rating, Ducksalad",[9]; [23],0
same,"Plant response rating, Rice",rice (Oryza sativa); [20],60
same,"Plant response rating, Rice",rice (Oryza sativa); [21],75
same,"Plant response rating, Rice",rice (Oryza sativa); [22],80
same,"Plant response rating, Rice",rice (Oryza sativa); [23],20
same,"Plant response rating, Sedge, Umbrella",[10]; [20],60
same,"Plant response rating, Sedge, Umbrella",[10]; [21],80
same,"Plant response rating, Sedge, Umbrella",[10]; [22],80
same,"Plant response rating, Sedge, Umbrella",[10]; [23],60
